Test results taken from patent US20250250264A1, “KIF18A INHIBITOR AND USE THEREOF” (Wuhan Humanwell Innovative Drug Research and Development …, priority 2022, published 2025).

What was measured:
[1] = target: recombinant protein KIF18A (kinesin domain: aa 1-467) (Homo sapiens (Human), UniProt Q8NI77); assay: Assay on inhibition of KIF18A enzymatic activity (ADP-Glo); format: biochemical; conditions: KIF18A 80 nM, ATP 80 μM, 3 h at room temperature, ADP-Glo luminescence; read-out: IC50 (μM), inhibitory effects of compounds on KIF18A enzymatic activity
Sequence of recombinant protein KIF18A (kinesin domain: aa 1-467) (Q8NI77 1-467): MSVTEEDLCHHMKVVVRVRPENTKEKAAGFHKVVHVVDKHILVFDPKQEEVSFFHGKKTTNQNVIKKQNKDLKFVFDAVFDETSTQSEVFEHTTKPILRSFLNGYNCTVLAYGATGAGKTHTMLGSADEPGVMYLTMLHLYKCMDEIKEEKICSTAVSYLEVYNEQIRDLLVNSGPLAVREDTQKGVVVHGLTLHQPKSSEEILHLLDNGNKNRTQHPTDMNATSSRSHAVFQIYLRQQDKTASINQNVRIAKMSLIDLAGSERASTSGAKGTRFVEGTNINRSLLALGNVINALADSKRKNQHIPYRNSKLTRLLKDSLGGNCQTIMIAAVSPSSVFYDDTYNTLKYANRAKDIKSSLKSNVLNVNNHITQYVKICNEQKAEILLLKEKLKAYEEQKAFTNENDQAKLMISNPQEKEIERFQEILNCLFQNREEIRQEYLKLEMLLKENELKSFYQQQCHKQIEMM
Sequence of recombinant protein KIF18A (kinesin domain: aa 1-467) (P02550 whole entry partner, the tested form may be a part): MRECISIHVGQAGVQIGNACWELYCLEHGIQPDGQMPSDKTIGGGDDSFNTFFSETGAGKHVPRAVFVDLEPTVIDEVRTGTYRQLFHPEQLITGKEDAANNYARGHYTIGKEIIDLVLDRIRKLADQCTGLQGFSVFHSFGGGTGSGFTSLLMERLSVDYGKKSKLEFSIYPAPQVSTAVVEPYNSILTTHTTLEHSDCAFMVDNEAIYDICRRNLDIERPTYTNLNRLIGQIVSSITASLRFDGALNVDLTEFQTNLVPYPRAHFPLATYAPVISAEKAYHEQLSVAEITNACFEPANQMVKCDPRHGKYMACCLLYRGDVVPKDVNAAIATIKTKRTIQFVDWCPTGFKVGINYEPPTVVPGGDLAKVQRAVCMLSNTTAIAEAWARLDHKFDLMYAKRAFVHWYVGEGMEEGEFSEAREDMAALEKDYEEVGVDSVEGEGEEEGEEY
Sequence of recombinant protein KIF18A (kinesin domain: aa 1-467) (P02554 whole entry partner, the tested form may be a part): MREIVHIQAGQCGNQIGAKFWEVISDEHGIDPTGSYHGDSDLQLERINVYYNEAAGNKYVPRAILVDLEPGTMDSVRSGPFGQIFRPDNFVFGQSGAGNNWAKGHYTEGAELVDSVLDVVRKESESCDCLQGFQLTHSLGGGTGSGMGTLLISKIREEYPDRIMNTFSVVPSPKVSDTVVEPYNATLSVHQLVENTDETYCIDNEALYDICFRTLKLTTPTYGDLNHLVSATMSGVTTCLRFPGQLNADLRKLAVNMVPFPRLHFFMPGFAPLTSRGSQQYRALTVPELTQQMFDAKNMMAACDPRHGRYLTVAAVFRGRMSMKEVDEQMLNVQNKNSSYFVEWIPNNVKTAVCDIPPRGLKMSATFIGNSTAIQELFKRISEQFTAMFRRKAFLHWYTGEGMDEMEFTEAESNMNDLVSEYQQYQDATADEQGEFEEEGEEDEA
Source text: The recombinant protein KIF18A (kinesin domain: aa 1-467) used in this assay was expressed by the Bac-to-Bac baculovirus expression system from Invitrogen, and the resulting protein was purified for use in this assay (Seki, M. et al. 2003 Nucleic Acids Res.). Quantitative detection of KIF18A enzymatic activity was completed using an ADP-Glo™ kinase assay kit (Promega Inc). Related procedures strictly followed the product instructions, which are briefly described as follows:
The reaction system consisted of a test compound, the recombinant protein KIF18A (aa 1-467), ATP (Promega Inc), and an assay buffer. The test compound was prepared into a 0.5 mM stock solution using DMSO (Sigma Inc) and then serially diluted in DMSO. The assay buffer consisted of an aqueous solution of 15 mM Tris, 10 mM MgCl2 (Sigma Inc), 0.01% Pluronic F-68 (Life Technologies Inc), 1 μM paclitaxel (Cytoskeleton Inc), 30 μg/mL porcine tubulin (Cytoskeleton Inc), and 2% DMSO. The KIF18A protein (final concentration: 80 nM) and the compound at different concentrations (1 μL) were added to the prepared assay buffer (50 μL), and the mixture was incubated at room temperature for 15 min. Then, ATP (final concentration: 80 μM) was added to the reaction mixture, and the resulting mixture was incubated at room temperature for 3 h. After the reaction was completed, 5 μL of the ADP-Glo™ reagent and 2.5 μL of the reaction mixture were added to a 384-well plate (Grenier Inc). The resulting mixture was mixed homogeneously, then sealed by an aluminum foil sealing film, and incubated at room temperature in the dark for 40 min. Finally, 10 μL of the […] was added to each reaction well, and the mixture was incubated at room temperature in the dark for 40 min. After all reactions were completed, the luminescence values of the wells were read on a microplate reader (Molecular Device_SpectraMax Id5), and the inhibition ratios were calculated. The calculation formula for the inhibition rates was as follows: inhibition rate=(1−(compound group−blank group)/(negative control group−blank group))×100%. Then, based on the inhibition rates at different compound concentrations, the IC50 value of the test compound was calculated using the GraphPad Prism 8 software.

[2] = system: NIH:OVCAR-3 cells; assay: Assay on inhibition of OVCAR3 tumor cell proliferation (CellTiter-Glo); format: cell-based; conditions: Homo sapiens, OVCAR-3, 72 h, 3 days of drug treatment, read-out: IC50 (μM), inhibitory effects of compounds on tumor cell proliferation
Procedure: NIH:OVCAR-3 cells (ATCC, Cat No. HTB-161, purchased from Co-Bier) were seeded into a T75 culture flask and cultured in an RPMI 1640 medium containing 20% FBS for 3 days in preparation for subsequent culturing and seeding into a 96-well plate for the cell proliferation assay.
The OVCAR3 cells were seeded at a density of 3000 cells/100 μL/well into the 96-well cell plate, and then the plate was incubated in an incubator (37° C., 5% CO2) for 18 h. On the second day, drug treatment was started. Serially diluted test compound solutions (each drug starting at a concentration of 10 μM, diluted in DMSO, with a dilution ratio of 1:3, and nine gradient points for each drug) or DMSO (negative control) was added to the medium in the plate at 100 μL/well, and a blank group was set up with only medium, but no seeded cell strains. After the drug addition, the plate was incubated in the incubator for another 3 days (37° C., 5% CO2). On the fourth day, plate detection was performed. To each well, 100 μL of CellTiter-Glo reagent (Promega G9243) was added. The plate was shaken for 5 min and then left to stand at room temperature for 5 min. The chemical luminescence signal value of each well was determined using a microplate reader (PerkinElmer EnVision®2104). Cell proliferation inhibition rate=(1−(compound group−blank group)/(DMSO group−blank group))×100%. Then, the IC50 value of each compound was calculated using the GraphPad Prism 8 software.

Cc1cc(-c2cnn(-c3ccc(NS(=O)(=O)CCO)cc3N3CCC4(CC3)CC4)c2)nc(OCCC(F)(F)F)n1 [Example I-115, N-(4-(4-(6-Methyl-2-(3,3,3-trifluoropropoxy)pyrimidin-4-yl)-1H-pyrazol-1-yl)-3-(6-azaspiro[2.5]octan-6-yl)phenyl)-2-hydroxyethane-1-sulfonamide]
IC50 [1]: 0.005 µM | IC50 [2]: 0.167 µM

Cc1cc(-c2cnn(-c3ccc(NS(=O)(=O)CCO)cc3N3CCC4(CC3)CC4)c2)nc(N2CCCC2)n1 [Example I-116, N-(4-(4-(6-Methyl-2-(pyrrolidin-1-yl)pyrimidin-4-yl)-1H-pyrazol-1-yl)-3-(6-azaspiro[2.5]octan-6-yl)phenyl)-2-hydroxyethane-1-sulfonamide]
IC50 [1]: 0.013 µM | IC50 [2]: 0.389 µM

Cc1cc(-c2cnn(-c3ccc(NS(=O)(=O)CCO)cc3N3CCC(C)(F)CC3)c2)nc(N2CCC(F)(F)CC2)n1 [Example I-117, N-(4-(4-(2-(4,4-Difluoropiperidin-1-yl)-6-methylpyrimidin-4-yl)-1H-pyrazol-1-yl)-3-(4-fluoro-4-methylpiperidin-1-yl)phenyl)-2-hydroxyethane-1-sulfonamide]
IC50 [1]: 0.009 µM | IC50 [2]: 0.365 µM

Cc1cc(-c2cnn(-c3ccc(NS(=O)(=O)CCO)cc3N3CCC4(CC3)CC4)c2)nc(N2CCCC(F)(F)C2)n1 [Example I-118, N-(4-(4-(2-(3,3-Difluoropiperidin-1-yl)-6-methylpyrimidin-4-yl)-1H-pyrazol-1-yl)-3-(6-azaspiro[2.5]octan-6-yl)phenyl)-2-hydroxyethane-1-sulfonamide]
IC50 [1]: 0.002 µM | IC50 [2]: 0.184 µM

O=c1ccc(-c2cnn(-c3ccc(NS(=O)(=O)CCO)cc3N3CCC4(CC3)CC4)c2)nn1C1CC(F)(F)C1 [Example I-121, N-(4-(4-(1-(3,3-Difluorocyclobutyl)-6-oxo-1,6-dihydropyridazin-3-yl)-1H-pyrazol-1-yl)-3-(6-azaspiro[2.5]octan-6-yl)phenyl)-2-hydroxyethane-1-sulfonamide]
IC50 [1]: 0.003 µM | IC50 [2]: 0.056 µM

O=S(=O)(CCO)Nc1ccc(-n2cc(-c3nc(N4CCC(F)(F)CC4)ncc3F)cn2)c(N2CCC3(CC2)CC3)c1 [Example I-129, N-(4-(4-(2-(4,4-Difluoropiperidin-1-yl)-5-fluoropyrimidin-4-yl)-1H-pyrazol-1-yl)-3-(6-azaspiro[2.5]octan-6-yl)phenyl)-2-hydroxyethane-1-sulfonamide]
IC50 [1]: 0.009 µM | IC50 [2]: 0.148 µM

O=S(=O)(CCO)Nc1ccc(-n2cc(-c3ncnc(N4CCC(F)(F)CC4)n3)cn2)c(N2CCC3(CC2)CC3)c1 [Example I-130, N-(4-(4-(4-(4,4-Difluoropiperidin-1-yl)-1,3,5-triazin-2-yl)-1H-pyrazol-1-yl)-3-(6-azaspiro [2.5]octan-6-yl)phenyl)-2-hydroxyethanesulfonamide]
IC50 [1]: 0.009 µM | IC50 [2]: 0.142 µM
